According to patent US7820703B2, “Lysophosphatidic acid receptor selective antagonists” (University of Virginia Patent Foundation, priority 2004, dated 2010):
pEC50, pIC50, pKi: −log10 of the molar value. “Also recorded” adds a separate entry of the source.

Tests used:
Format in all cases: biochemical
human LPA2 [1] = target: T1, human LPA2 (Homo sapiens, UniProt Q9HBW0); test: GTP[γ35S] binding assay, agonist activity at LPA2; parameters: expressed in transfected cells; host or cells: HEK293T cells (membranes); conditions: for pEC50: transfected HEK293T cell membranes; for LPA2 Emax: LPA = 100
Description: (§1) The appropriate receptor plasmid DNA (encoding mouse LPA1, human LPA2 or human LPA3) was mixed with equal amounts of expression plasmids (pcDNA3) encoding a mutated (C351F) rat Gi2a, cow β1, and γ2 proteins and these DNAs were used to transfect monolayers of HEK293T cells (where ‘T’ indicates expression of the SV-40 virus large T antigen) using the calcium phosphate precipitate method. After about 60 hours, cells were harvested, membranes were prepared, aliquoted and stored at −70° C. until use.
(§2) The GTP[35 γS] assay was performed as described by us previously. Membranes containing 5 ug of protein were incubated in 0.1 ml GTP-binding buffer (in mM: HEPES 50, NaCl 100, MgCl2 10, pH7.5) containing […], […], 0.1 nM GTP[35 γS] (1200 Ci/mmol), and indicated lipid(s) for 30 minutes at 30° C. Samples were analyzed for membrane-bound radionuclide using a Brandel Cell Harvester (Gaithersburg, Md.).
(§3) Membranes prepared from these cells are used to measure GTPγ[^35S] binding as a function of test compound concentration. The resulting dose-response curves provide relative potency (EC50) and efficacy (Emax) for the test compounds.

human LPA3 [2] = target: T2, human LPA3 (Homo sapiens, UniProt Q9UBY5); test: GTP[γ35S] binding assay, agonist activity at LPA3; parameters: expressed in transfected cells; host or cells: HEK293T cells (membranes); conditions: for LPA3 Emax: LPA = 100; for pEC50: transfected HEK293T cell membranes
T2 sequence (Q9UBY5 1-353): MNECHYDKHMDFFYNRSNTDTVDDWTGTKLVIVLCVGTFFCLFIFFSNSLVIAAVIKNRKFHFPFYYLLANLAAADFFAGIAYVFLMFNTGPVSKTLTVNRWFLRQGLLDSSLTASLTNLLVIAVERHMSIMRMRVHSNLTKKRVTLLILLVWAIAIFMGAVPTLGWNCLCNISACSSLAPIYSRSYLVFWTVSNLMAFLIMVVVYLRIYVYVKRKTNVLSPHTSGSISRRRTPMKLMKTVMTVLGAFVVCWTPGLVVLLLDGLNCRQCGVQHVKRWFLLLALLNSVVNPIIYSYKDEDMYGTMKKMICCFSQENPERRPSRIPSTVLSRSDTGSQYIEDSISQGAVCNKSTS
Description: as §1
as §2, with “Md.). The C351F mutation renders the Gi2α protein resistant to inactivation by pertussis toxin or the alkylating agent N-ethylmaleimide; however in practice background binding was sufficiently low to obviate these maneuvers.” for “Md.).”
(§4) This assay isolates each recombinant LPA receptor and allows analysis of all three receptors using the same system.
as §3

LPA1 receptor = target: T3, LPA1 receptor (Mus musculus, UniProt P61793); test: antagonism of LPA-evoked GTP[γ35S] binding at LPA1; conditions: for antagonist activity at LPA1, in words: GTP[γ35S] binding; for pIC50: antagonism of LPA-evoked GTP[γ35S] binding; for pKi: determined by Schild regression
T3 construct: expressed in transfected cells; host or cells: HEK293T cells (membranes)
Description: as §1, §2
(§5) The X-intercept of the linear transformation is equal to the inverse log of the KI.
(§6) All compounds were characterized by ^1H and ^13C NMR, mass spectroscopy and, in certain cases, elemental analysis. A GTP[γ35S] binding assay was adapted to assess in vitro activity.
(§7) All compounds were characterized by ^1H and ^13C NMR, mass spectroscopy and, in most cases, C, H, N analyses. A membrane-based GTP[γ^35S] binding assay was adapted to assess in vitro activity at the LPA1 and LPA3 receptors.

human LPA3 [3] = target: T2, human LPA3; test: antagonism of LPA-evoked GTP[γ35S] binding at LPA3; parameters: expressed in transfected cells; host or cells: HEK293T cells (membranes); conditions: for antagonist activity at LPA3, in words: GTP[γ35S] binding; for pIC50: antagonism of LPA-evoked GTP[γ35S] binding
Description: as §1, §2, §5, §6, §7

mouse LPA1 = mouse LPA1 (Mus musculus, UniProt P61793); test: GTP[γ35S] binding assay, agonist activity at LPA1; parameters: expressed in transfected cells; host or cells: HEK293T cells (membranes); conditions: for LPA1 Emax: LPA = 100; for pEC50: transfected HEK293T cell membranes
Description: as §1
as §2, with “Md.). The C351F mutation renders the Gi2α protein resistant to inactivation by pertussis toxin or the alkylating agent N-ethylmaleimide; however in practice background binding was sufficiently low to obviate these maneuvers.” for “Md.).”
as §4, §3

LPP3 (PAP2b) = target: T4, LPP3 (PAP2b) (Homo sapiens, UniProt O14495); test: LPP inhibition, competition with [32P]LPA, LPP3; conditions: competition with 50 nM [32P]LPA
T4 sequence (O14495 1-311): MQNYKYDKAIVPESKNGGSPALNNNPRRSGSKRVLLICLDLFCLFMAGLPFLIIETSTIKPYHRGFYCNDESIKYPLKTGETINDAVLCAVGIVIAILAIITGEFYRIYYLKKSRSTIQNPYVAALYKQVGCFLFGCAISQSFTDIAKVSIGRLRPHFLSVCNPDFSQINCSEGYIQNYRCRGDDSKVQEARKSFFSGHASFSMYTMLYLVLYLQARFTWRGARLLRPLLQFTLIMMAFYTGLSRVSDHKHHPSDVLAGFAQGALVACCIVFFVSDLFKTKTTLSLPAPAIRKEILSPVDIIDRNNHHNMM
Description: NOHPP was also tested for activity at the three cloned LPPs. Although the phosphonate head group eliminates the possibility of NOHPP acting as a substrate, it is possible that the compound could be a competitive inhibitor.

human LPA2 [4] = target: T1, human LPA2; test: antagonism of LPA-evoked GTP[γ35S] binding at LPA2; parameters: expressed in transfected cells; host or cells: HEK293T cells (membranes)
Description: as §1
as §2, with “Md.). The C351F mutation renders the Gi2α protein resistant to inactivation by pertussis toxin or the alkylating agent N-ethylmaleimide; however in practice background binding was sufficiently low to obviate these maneuvers.” for “Md.).”
All compounds were characterized by ^1H and ^13C NMR, mass spectroscopy and, in certain cases, elemental analysis. A GTP[γ35S] binding assay was adapted to assess in vitro activity. […] The Ki values as determined by Schild regression are shown for the LPA1 receptor. […]

Sequence of mouse LPA1 (P61793 whole entry): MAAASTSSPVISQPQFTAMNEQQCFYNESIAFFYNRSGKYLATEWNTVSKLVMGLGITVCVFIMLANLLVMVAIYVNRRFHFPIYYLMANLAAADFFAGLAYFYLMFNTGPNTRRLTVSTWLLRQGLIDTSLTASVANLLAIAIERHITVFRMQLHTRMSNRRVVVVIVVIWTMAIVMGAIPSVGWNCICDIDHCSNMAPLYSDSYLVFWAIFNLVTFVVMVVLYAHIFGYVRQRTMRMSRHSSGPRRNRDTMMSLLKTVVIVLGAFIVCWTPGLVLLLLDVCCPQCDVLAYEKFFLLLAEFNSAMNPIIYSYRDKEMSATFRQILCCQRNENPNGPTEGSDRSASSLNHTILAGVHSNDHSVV
T3 sequence (P61793 whole entry): as above
T1 sequence (Q9HBW0 whole entry): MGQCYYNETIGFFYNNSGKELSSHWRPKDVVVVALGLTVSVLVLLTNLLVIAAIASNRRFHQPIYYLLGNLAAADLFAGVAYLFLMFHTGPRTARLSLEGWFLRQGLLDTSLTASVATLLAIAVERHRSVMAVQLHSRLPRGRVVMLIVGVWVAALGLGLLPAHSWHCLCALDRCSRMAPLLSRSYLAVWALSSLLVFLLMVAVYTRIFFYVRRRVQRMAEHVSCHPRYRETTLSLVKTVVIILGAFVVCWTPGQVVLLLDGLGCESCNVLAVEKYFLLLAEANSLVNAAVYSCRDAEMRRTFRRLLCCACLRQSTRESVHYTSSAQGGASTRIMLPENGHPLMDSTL

Compound: 1-acyl, 2-hydroxyl-sn-glycerol-3-phosphate [LPA, reference compound]
- pEC50 (human LPA2 [1]): 8.17
- LPA3 Emax (human LPA3 [2]): 100
- pEC50 (human LPA3 [2]): 6.58

Compound: CCCCCC=CCC=CCCCCCCCC(=O)NC(COP(=O)(O)O)Cc1ccc(OCc2ccccc2)cc1 (stereo not shown) [Compound 29e]
- antagonist activity at LPA1, in words (LPA1 receptor): potency comparable to lead compound 26

Compound: CCCCCCCCC=CCCCCCCCC(=O)NC(COP(=O)(O)O)Cc1ccc(OC(=O)c2ccc(N)cc2)cc1 (stereo not shown) [Compound 35p]
- antagonist activity at LPA1, in words (LPA1 receptor): devoid of activity
- antagonist activity at LPA3, in words (human LPA3 [3]): devoid of activity

Compound: CCCCCCCC/C=C\CCCCCCCC(=O)N[C@@H](COP(=O)(O)O)C(=O)c1ccc(OCc2ccccc2)cc1 [Compound 39a]
- pIC50 (LPA1 receptor): < 5.00
- pIC50 (human LPA3 [3]): < 5.00

Compound: CCCCCCCC/C=C\CCCCCCCC(=O)N[C@H](COP(=O)(O)O)C(=O)c1ccc(OCc2ccccc2)cc1 [Compound 39b]
- antagonist activity at LPA1, in words (LPA1 receptor): retains potency comparable to 26
- pIC50 (LPA1 receptor): 5.60
- pIC50 (human LPA3 [3]): < 5.00

Compound: CCCCCCCC/C=C\CCCCCCCC(=O)N[C@H](COP(=O)(O)O)Cc1ccc(OCc2cccc(OC)n2)cc1 [Compound 57f]
- pIC50 (LPA1 receptor): < 5.00
- pIC50 (human LPA3 [3]): 5.96

Compound: CCCCCCCC/C=C\CCCCCCCC(=O)N[C@@H](COP(=O)(O)O)Cc1ccc(OCc2cc(OCC)ccn2)cc1 [Compound 57h]
- pIC50 (LPA1 receptor): 6.84
- pKi (LPA1 receptor): 7.59
- pIC50 (human LPA3 [3]): 7.41

Compound: CCCCCCCCC=CCCCCCCCC(=O)NC(COP(=O)(O)O)Cc1ccc(OCc2cc(OCC(F)(F)F)ccn2)cc1 (stereo not shown) [Compound 57i]
- antagonist activity at LPA1, in words (LPA1 receptor): equipotent to 26a
- pIC50 (LPA1 receptor): 7.08
- pKi (LPA1 receptor): 7.72
- antagonist activity at LPA3, in words (human LPA3 [3]): three-fold more potent
- pIC50 (human LPA3 [3]): 7.32

Compound: CCCCCCCC/C=C\CCCCCCCC(=O)N[C@@H](COP(=O)(O)O)Cc1ccc(OCc2cc(OCCC)ccn2)cc1 [Compound 57j]
- pIC50 (LPA1 receptor): 6.85
- pKi (LPA1 receptor): 7.19

Compound: CCCCCCCC/C=C\CCCCCCCC(=O)N[C@@H](COP(=O)(O)O)Cc1ccc(OCc2ncc(C)c(OC)c2C)cc1 [Compound 57l]
- pIC50 (LPA1 receptor): 7.21
- pKi (LPA1 receptor): 7.55
- pIC50 (human LPA3 [3]): 7.41

Compound: CCCCCCCC/C=C\CCCCCCCC(=O)N[C@H](COP(=O)(O)O)Cc1ccc(OCc2ncc(C)c(OC)c2C)cc1 [Compound 57m]
- pIC50 (LPA1 receptor): 5.43
- pIC50 (human LPA3 [3]): 6.25

Compound: CCCCCCCC/C=C\CCCCCCCC(=O)N[C@@H](COP(=O)(O)O)Cc1ccc(OCc2ccc3ccccc3n2)cc1 [Compound 57n]
- pIC50 (LPA1 receptor): 5.84
- pIC50 (human LPA3 [3]): 6.27

Compound: CCCCCCCC/C=C\CCCCCCCC(=O)N[C@H](COP(=O)(O)O)Cc1ccc(OCc2cc(OC)c3ccccc3n2)cc1 [Compound 57p]
- pIC50 (LPA1 receptor): < 5.00
- pIC50 (human LPA3 [3]): 5.59

Compound: CCCCCCCC/C=C\CCCCCCCC(=O)N[C@@H](CCP(=O)(O)O)Cc1ccc(OCc2ncc(C)c(OC)c2C)cc1 [Compound 63d]
- antagonist activity at LPA1, in words (LPA1 receptor): no antagonism
- pIC50 (LPA1 receptor): < 5.00
- antagonist activity at LPA3, in words (human LPA3 [3]): improved potency over lead compound 26a
- pIC50 (human LPA3 [3]): 6.82

Compound: CCCCCCCC/C=C\CCCCCCCC(=O)N[C@@H](CN)COP(=O)(O)O [Compound 12048]
- LPA2 Emax (human LPA2 [1]): 36.4
- pEC50 (human LPA2 [1]): < 5.30
- LPA3 Emax (human LPA3 [2]): 3.8
- pEC50 (human LPA3 [2]): < 5.30
- LPA1 Emax (mouse LPA1): 9.4
- pEC50 (mouse LPA1): < 5.30

Compound: CCCCCCCC/C=C\CCCCCCCC(=O)NCCC(=O)P(=O)(O)O [VPC12060]
- inhibition of LPP3 (LPP3 (PAP2b)): markedly better at the PAP2b (LPP3) than PAP2a (LPP1)

Compound: CCCCCCCC/C=C\CCCCCCCC(=O)N[C@H](C)COP(=O)(O)O [VPC12086]
- LPA2 Emax (human LPA2 [1]): 95.2
- pEC50 (human LPA2 [1]): 7.74
- LPA3 Emax (human LPA3 [2]): 93.4
- pEC50 (human LPA3 [2]): 6.95
- agonist activity at LPA1, in words (mouse LPA1): more potent and efficacious than LPA; also recorded: more potent than 1-oleoyl LPA
- LPA1 Emax (mouse LPA1): 107.6
- pEC50 (mouse LPA1): 8.47

Compound: CCCCCCCC/C=C\CCCCCCCC(=O)N[C@@H](C)COP(=O)(O)O [VPC12101]
- LPA2 Emax (human LPA2 [1]): 6.9
- pEC50 (human LPA2 [1]): < 5.30
- LPA3 Emax (human LPA3 [2]): 9.7
- pEC50 (human LPA3 [2]): < 5.30
- LPA1 Emax (mouse LPA1): 48.1
- pEC50 (mouse LPA1): 5.54

Compound: CCCCCCCC/C=C\CCCCCCCC(=O)N[C@H](CC)COP(=O)(O)O [VPC12109]
- LPA2 Emax (human LPA2 [1]): 92.6
- pEC50 (human LPA2 [1]): 6.79
- LPA3 Emax (human LPA3 [2]): 83.5
- pEC50 (human LPA3 [2]): 5.97
- LPA1 Emax (mouse LPA1): 66.8
- pEC50 (mouse LPA1): 7.45

Compound: CCCCCCCC/C=C\CCCCCCCC(=O)N[C@H](CN)COP(=O)(O)O [VPC12178]
- LPA2 Emax (human LPA2 [1]): 103.2
- pEC50 (human LPA2 [1]): 7.30
- LPA3 Emax (human LPA3 [2]): 102.9
- pEC50 (human LPA3 [2]): 6.17
- agonist activity at LPA1, in words (mouse LPA1): more potent than 1-oleoyl LPA
- LPA1 Emax (mouse LPA1): 98.7
- pEC50 (mouse LPA1): 8.31

Compound: CCCCCCCC/C=C\CCCCCCCC(=O)N[C@H](CO)COP(=O)(O)O [VPC31143]
- agonist activity at LPA1, in words (mouse LPA1): more potent than 1-oleoyl LPA

Compound: CCCCCCCC/C=C\CCCCCCCC(=O)N[C@@H](COP(=O)(O)O)Cc1ccc(OCc2ccc(CCCCC)cc2)cc1 [VPC31162]
- antagonist activity at LPA2, in words (human LPA2 [4]): antagonist activity
- agonist activity at LPA3, in words (human LPA3 [2]): agonist
- agonist activity at LPA1, in words (mouse LPA1): agonist
